Results on one molecule are retold here after patent US20240398814A1, “KRAS INHIBITOR AND HDAC INHIBITOR COMBINATION FOR THE TREATMENT OF CANCER” (Northwestern University, priority 2023, published 2024).

In test [1] the test system is human LKB1 mutant lung cancer cells. Nature of the test: FGFR1 resistance mechanism in human LKB1 mutant lung cancer cells. The format is cell-based. To be noted: 9 days of trametinib treatment, entinostat treatment days 3-9 (6 days total).
Another test relates to NF-kB/p65 protein. In words: Western blot of p65 nuclear localisation and K310 acetylation in KL LJE1 cells. The class given is cell-based, mouse. How it is done:
Protein lysates in CST buffer (20 mM Tris pH 7.5, 150 mM NaCl, 1% Triton X-100, 50 mM NaF, 1 mM EDTA, 1 mM EGTA, 2.5 mM PyroPhosphate, 2 mM beta-glycerol-phosphate, 1 mM orthovanadate, 0.01 mM Calyculan A) with protease inhibitors were equilibrated for protein levels using a BCA protein assay kit (Pierce), resolved on 8% SDS-PAGE gels, and transferred to membrane. Membranes were blocked in milk, incubated o/n at 4C in diluted primary antibody, washed with TBS-T, incubated 1 hr in secondary antibody diluted in TBS-T plus milk, washed in TBS-T, and developed using SuperSignal ECL. Secondary antibodies: anti-rabbit (Millipore AP132P) and anti-mouse (Millipore AP124P). Nuclear fractions were isolated using a NE-PER nuclear and cytoplasmic extraction kit (Thermofisher) under manufacturers conditions.
p65-expressing DNA constructs RelA-Flag (22) (Addgene 20012) and GFP-RelA (21) (Addgene 23255) were transiently transfected into KL LJE1 cells using Lipofectamine 2000 (Thermo Fisher Scientific) according to the manufacturer's protocol. Cells were treated with drug as indicated 24 hours after transfection.
A general note: Immunoblotting shows a protein as a band on a membrane.

The subject of a further test is KL LJE1 cells. Nature of the test: qRT-PCR of chemokine (HRCG) gene expression in KL LJE1 cells. The class given is cell-based, mouse. How it is done:
All cell lines were incubated at 37° C. and were maintained in an atmosphere containing 5% CO2. Cells were tested for Mycoplasma (Lonza) using manufacturer's conditions and were deemed negative. Cells were grown in Dulbecco's modified Eagles medium (DMEM) plus 10% fetal bovine serum (Gibco) and were continuously maintained under antibiotic selection for stable cell lines. Proliferation assays were performed by plating 2×10^3 cells per well of a 6-well plate, and cells were counted 5 days post-plating. Drug treatments were carried out using the following doses: entinostat 1 uM or 2 uM, RGFP966 10uM, TSA 0.5 uM, BRD3308 5 uM, trametinib 5 nM, 10 nM, and 25 nM, and MRTX1133 10 nM, 25 nM, and 50 nM, as indicated for the indicated treatment lengths. Media was changed and fresh drug added every 2 days.
(§1) mRNA was prepared using the Quick-RNA Miniprep kit (Zymo Research), including DNase treatment. cDNA was synthesized from 2 μg of RNA using SuperScript III (Life Technologies), and qPCR was carried out with diluted cDNA, appropriate primers, and SYBR Green PCR master mix (ThermoFisher Scientific) using a C1000 Thermal Cycler (BioRad). Relative mRNA levels were calculated using the delta Ct method, using Tbp as an internal control.
For orientation: Quantitative PCR measures a nucleic acid by following its amplification.

The test system of a further test is KL NSCLC GEMM. Nature of the test: Short-term (5 day) in vivo entinostat treatment, qRT-PCR on lung tumors and liver. To be noted: 10 mg/kg/day entinostat, oral gavage, 5 days. On the set-up: species or system mouse. How it is done:
KL mice were intratracheally intubated with lentivirus expressing Cre recombinase to initiate tumorigenesis and imaged biweekly by BLI starting 4 weeks after Cre administration. When tumor burden in all mice was greater than 5×107 photons/see as determined by BLI, treatment was initiated. Mice were randomized and treated daily by oral gavage for 5 days with vehicle or 10 mg/kg entinostat. In vivo treatment doses were selected based on publications (39, 69-71). Entinostat was diluted to 1 mg/mL in vehicle (0.5% Methyl cellulose in water), vortexed, sonicated 10 minutes, and administered at 10 mg/kg. Drug and vehicle was administered starting at ˜9am daily throughout the duration of treatment. The experiment was terminated after 5 days of treatment, at which time primary lung tumors and liver were isolated by dissection and immediately flash frozen.
as §1
Next, pharmacological inhibition of HDAC3 was assessed for impacting HRCG expression in vivo as observed in cell culture experiments (FIG. 12B, 18D-G). Lung tumorigenesis was initiated in KL GEMM mice, and disease growth was monitored over time using bioluminescence imaging (BLI) potentiated by the Rosa26^LSL-luferase genetic allele. When tumor burden was established in all mice (BLI >5×10^7 photons/sec), mice were randomized and treatment was initiated. Mice were treated daily for 5 days with vehicle or 10 mg/kg/day entinostat administered by oral gavage, after which lung tumors and liver were collected (FIG. 14C). Using qRT-PCR, gene expression of HDAC3 target genes in lung tumors and liver was assessed. […] To confirm that entinostat treatment was engaging on-target effects in the liver samples, the gene expression of canonical HDAC3 liver target genes Nr1d1 and Arntl was assessed (FIG. 14E).

The subject of test [2] is human KRAS, LKB1 mutant lung cancer cells. In words: FGFR1 resistance mechanism in human KRAS, LKB1 mutant lung cancer cells. The format is cell-based. To be noted: 9 days of trametinib treatment, entinostat treatment days 3-9 (6 days total).

Structures are written as SMILES.

Consider `Nc1ccccc1NC(=O)c1ccc(CNC(=O)OCc2cccnc2)cc1` [entinostat], for which the “impact of Trametinib on the FGFR1 resistance mechanism” value in test [1] is given as “reverses the impact of Trametinib on the FGFR1 resistance mechanism”. Further, the “acetylation of wildtype p65 at K310 (versus K310A mutant)” value in the test with NF-kB/p65 protein (5 hours, 1 uM entinostat or 5 uM BRD3308) is on record as “induce acetylation of wildtype p65 at K310”. In addition, the “K310 acetylation on transfected p65” value in the test on NF-kB/p65 protein (Flag-p65 or GFP-p65, 6 hr, 2 uM entinostat) is recorded as “increased K310 acetylation on p65”. Moreover, the “quantity of p65 protein in the nuclear fraction” value in the test with NF-kB/p65 protein (Western blot, 6 hr, 2 uM entinostat, 10uM RGFP966, 0.5 uM TSA) is recorded as “increased the quantity of p65 protein in the nuclear fraction”. For the same molecule, the “HRCG gene expression response in cells expressing p65 WT or p65 K310A” value with KL LJE1 cells (3 days, 1 uM entinostat) was “K310 only significantly altered the gene expression response of Cc120, Cxc15, and Cc15”. For the same molecule, in the test on KL LJE1 cells (3 days, 1 uM entinostat or 5 uM BRD3308), the “gene expression induction in NT versus p65 KO cells” value is reported as “p65 facilitates maximal gene expression induction”. Besides, the “chemokine (SASP) gene expression” value in the test with KL LJE1 cells (72 hr, 2 uM entinostat or 10uM RGFP966) is given as “robust induction of gene expression”. In addition, in the test with KL NSCLC GEMM, the “Cxc110 expression in vivo, lung tumors versus liver” value was “induced upon entinostat treatment selectively in lung tumor cells”; the “HRCG expression in livers from the same mice” value is reported as “did not induce HRCG expression”; the “HRCG expression in lung tumors” value is “potently induced HRCG expression”; the “Nr1d1 and Arntl gene expression in the liver” value is “impacted Nr1d1 and Arntl gene expression in the liver”. The “impact of Trametinib on the FGFR1 resistance mechanism” value in test [2] is listed as “reverses the impact of Trametinib on the FGFR1 resistance mechanism”.
